In paper PMC6891315, “Synthesis of Novel Farnesoid X Receptor Agonists and Validation of Their Efficacy in Activating Differentiation of Mouse Bone Marrow-Derived Mesenchymal Stem Cells into Osteoblasts” (Molecules, 2019):

Key:
[1] = biological target: T1, LXRα (Homo sapiens, UniProt Q13133); assay: LXRα response element-driven luciferase reporter assay in COS-7 cells; conditions: 1 μM
T1 sequence (Q13133 1-447): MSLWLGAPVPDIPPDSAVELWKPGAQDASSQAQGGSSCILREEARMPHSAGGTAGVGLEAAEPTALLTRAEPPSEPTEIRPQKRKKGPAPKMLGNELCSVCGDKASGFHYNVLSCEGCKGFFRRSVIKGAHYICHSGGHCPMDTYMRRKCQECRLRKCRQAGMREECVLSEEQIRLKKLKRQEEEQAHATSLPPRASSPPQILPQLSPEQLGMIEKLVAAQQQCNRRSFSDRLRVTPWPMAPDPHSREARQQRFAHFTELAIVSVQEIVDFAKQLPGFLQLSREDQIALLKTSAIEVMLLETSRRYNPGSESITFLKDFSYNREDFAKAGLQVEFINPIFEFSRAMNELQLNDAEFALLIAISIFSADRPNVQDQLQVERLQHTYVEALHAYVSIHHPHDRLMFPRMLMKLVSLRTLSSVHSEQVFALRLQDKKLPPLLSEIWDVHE
Description: Luciferase reporter assay was performed as described previously [53]. Briefly, human hepatoma Huh-7 (for FXR, RARα, and RXRα), transformed African green monkey kidney fibroblast COS-7 (for LXRα/β and PPARα/γ/δ), or human embryonic kidney HEK293 (for VDR and TGR5) cells were transfected with each of plasmids for nuclear receptor and nuclear receptor-response element-driven luciferase gene. […] The luciferase activity was measured as described previously [53].

[2] = tested on: FXR, BSEP and SHP gene expression in ST-2 MSCs; assay: qPCR of FXR and FXR-target genes (BSEP, SHP) during osteoblast differentiation; assay type: cell-based, mouse; conditions: for mRNA expression level of FXR: with BMP-2 50 ng/mL, 6 and 12 days, 10 μM CDCA, 5 μM GW4064, 5 μM 3 or 4, vs BMP-2-treated cells
Description: (§1) Mouse ST-2 MSCs were obtained from RIKEN BioResource Research Center (Tsukuba, Japan) and cultured in RPMI-1640 medium (Sigma) containing 10% (v/v) fetal calf serum and antibiotics (100 units/mL penicillin and 100 μg/mL streptomycin; Nacalai Tesque) at 37 °C in an atmosphere of 5% CO2. The ST-2 MSCs were allowed to differentiate into osteoblasts for 6 or 12 days in RPMI-1640 medium with BMP-2 (50 ng/mL). The medium was changed every 3 days.
(§2) RNAiso Plus was used to isolate total RNA (Takara-Bio, Kyoto, Japan). Subsequently total RNA (1 μg) was reverse-transcribed to cDNAs using ReverTra Ace reverse transcriptase (Toyobo, Osaka, Japan) and random hexamer (Takara-Bio). Thereafter, the mRNA levels were determined by qPCR analysis using a Power SYBR Green Master Mix (Thermo Fisher Scientific) in an Applied Biosystems 7500 Real Time PCR System (Thermo Fisher Scientific). The relative mRNA expression levels were determined using the 2^−ΔΔCT method and normalized to that of glyceraldehyde-3-phosphate dehydrogenase (GAPDH).

[3] = tested on: ST-2 MSCs; assay: ALP staining and ALP activity in BMP-2-induced osteoblast differentiation; assay type: cell-based, mouse; conditions: for staining and activity of ALP: with BMP-2 50 ng/mL, 6 or 12 days, 10 μM CDCA, 5 μM GW4064, 5 μM 3 or 4, vs BMP-2-treated cells
Description: as §1
The ST-2 MSCs were allowed to differentiate into osteoblasts for 12 days in RPMI-1640 medium with BMP-2 (50 ng/mL) and one of FXR agonists together with or without GS (25 μM). Then, the cells were washed twice with PBS and fixed with 10% (v/v) formaldehyde in PBS at 25 °C for 10 min. The cells were again washed with PBS, and incubated with the staining solution (0.1 mg/mL naphthol AS-MX phosphate and 0.6 mg/mL Fast-blue BB salt in 0.1 M Tris-Cl, pH 8.8) at 25 °C for 30 min. After removing the staining solution, the cells were washed with PBS and visualized under a microscope (CKX-41, Olympus, Tokyo, Japan).
The ALP activity was measured using LabAssay ALP (FUJIFILM Wako Pure Chemical) according to the manufacturer’s protocols. Protein concentrations were measured using a Pierce BCA Protein Assay Kit (Thermo Fisher Scientific).

[4] = tested on: ALP gene expression in ST-2 MSCs; assay: qPCR of ALP gene during osteoblast differentiation; assay type: cell-based, mouse; conditions: for ALP gene expression (mRNA level): with BMP-2 50 ng/mL, 6 or 12 days, 10 μM CDCA, 5 μM GW4064, 5 μM 3 or 4, vs BMP-2-treated cells
Description: as §1, §2

[5] = tested on: RUNX2, COL1A1 and OCN gene expression in ST-2 MSCs; assay: qPCR of osteogenic genes (RUNX2, COL1A1, OCN) during osteoblast differentiation; assay type: cell-based, mouse; conditions: for expression of RUNX2, COL1A1 and OCN genes: with BMP-2 50 ng/mL, 10 μM CDCA, 5 μM GW4064, 5 μM 3 or 4, vs BMP-2-treated cells
Description: as §1, §2

[6] = tested on: FXR; conditions: cited from earlier work
[7] = tested on: ST-2 MSCs; assay: Cell toxicity (WST, Cell Counting Kit-8) assay; assay type: cell-based, mouse; conditions: 12 days; 0–10 μM CDCA, 0–5 μM GW4064, 0–5 μM 3 or 4
Description: The cells were washed twice with PBS, and cell viability was determined using Cell Counting Kit-8 (Dojindo Molecular Technologies, Kumamoto, Japan) according to the protocols provided by the supplier. The cell viability (%) was shown relative to the vehicle-treated cells (0 μM).

## CC(C)c1onc(-c2c(Cl)cccc2Cl)c1COc1ccc(-c2nc3cc(C(=O)O)ccc3n2C)cc1 [FXR agonist 2]
[1]
  LXRα-response element-driven luciferase activity: increased

## C/C=C1\C(=O)C[C@H]2[C@@H]3CCC4=CC(=O)CC[C@]4(C)[C@H]3CC[C@]12C [GS, (Z)-guggulsterone]
[2]; co-treatment with 25 μM GS
  effect on FXR agonist-induced BSEP and SHP expression: suppressed
  effect on FXR agonist-induced FXR gene expression: repressed
[3]; co-treatment with 25 μM GS
  effect on FXR agonist-induced staining and activity of ALP: suppressed
[4]; co-treatment with 25 μM GS
  effect on FXR agonist-induced ALP gene expression: repressed
[5]; co-treatment with 25 μM GS
  effect on novel FXR agonist-induced expression of osteogenic genes: repressed

## CC[C@H]1[C@@H](O)[C@@H]2[C@H](CC[C@]3(C)[C@@H]([C@H](C)CCC(=O)O)CC[C@@H]23)[C@@]2(C)CC[C@@H](O)C[C@@H]12 [6-ECDCA, 6α-ethylchenodeoxycholic acid]
[6]
  potency relative to CDCA: about 100 fold

## CC(C)c1onc(-c2c(Cl)cccc2Cl)c1COc1ccc(-c2nc3ccc(C(=O)O)cc3n2C)cc1Cl [FXR agonist 3]
[7]
  cytotoxicity (cell viability, WST assay): No cytotoxicity
[2]
  mRNA expression level of FXR: elevated
[3]; 6- or 12-days-differentiated ST-2 MSCs, 5 μM
  ability to enhance ALP staining and activity compared with GW4064: comparable to that of GW4064
[3]
  staining and activity of ALP: enhanced
[4]; 5 μM, with BMP-2
  ability to enhance ALP gene expression compared with GW4064: comparable to that of GW4064
[4]
  ALP gene expression (mRNA level): enhance
[5]; 6 days, 5 μM, with BMP-2
  increase of RUNX2, COL1A1 and OCN expression compared with GW4064: comparable to that of GW4064
[5]; 6 days
  expression of RUNX2, COL1A1 and OCN genes: elevated

## C[C@H](CCC(=O)O)[C@H]1CC[C@H]2[C@@H]3[C@H](O)C[C@@H]4C[C@H](O)CC[C@]4(C)[C@H]3CC[C@]12C [CDCA, chenodeoxycholic acid]
[7]
  cytotoxicity (cell viability, WST assay): No cytotoxicity
[2]
  mRNA expression level of FXR: elevated
[3]
  staining and activity of ALP: elevated
[4]
  ALP gene expression (mRNA level): elevated
[5]; 6 days
  expression of RUNX2, COL1A1 and OCN genes: further enhanced

## CC(C)c1onc(-c2c(Cl)cccc2Cl)c1COc1ccc(/C=C/c2cccc(C(=O)O)c2)c(Cl)c1 [GW4064]
[7]
  cytotoxicity (cell viability, WST assay): No cytotoxicity
[2]
  mRNA expression level of FXR: elevated
[3]
  staining and activity of ALP: elevated
[4]
  ALP gene expression (mRNA level): elevated
[5]; 6 days
  expression of RUNX2, COL1A1 and OCN genes: further enhanced

## CC(C)c1onc(-c2c(Cl)cccc2Cl)c1COc1ccc(-c2nc3ccc(C(=O)O)cc3n2C)cc1 [FXR agonist 1]
[1]
  LXRα-response element-driven luciferase activity: increased

## CC(C)c1onc(-c2c(Cl)cccc2Cl)c1COc1ccc(-c2nc3ccc(C(=O)O)cc3n2C)c(Cl)c1 [FXR agonist 4, 2-[2-Chloro-4-[[3-(2,6-dichlorophenyl)-5-isopropyl-isoxazol-4-yl]methoxy]phenyl]-3-methyl-benzimidazole-5-carboxylic acid]
[7]
  cytotoxicity (cell viability, WST assay): No cytotoxicity
[2]
  mRNA expression level of FXR: elevated
[3]
  staining and activity of ALP: enhanced
[4]
  ALP gene expression (mRNA level): enhance
[5]; 6 days
  expression of RUNX2, COL1A1 and OCN genes: elevated
